This passage reports IC50 results from ChEMBL document CHEMBL3769368, “Semi-synthesis and anti-tumor evaluation of novel 25-hydroxyprotopanaxadiol derivatives as apoptosis inducing agents” (Medchemcomm, 2015).

Assay [1] is described as follows: Antiproliferative activity against human BGC823 cells after 48 hrs by MTT assay. It counts as functional, cell-based. The conditions noted are these: BGC-823, 48 h. A general note: Tetrazolium assays rely on reduction of a dye to a coloured formazan, in cell work by metabolically active cells.
The nature of assay [2]: Antiproliferative activity against human alpha-2 cells after 48 hrs by MTT assay. It counts as functional, cell-based.
A short description of assay [3]: Antiproliferative activity against human PC3 cells after 48 hrs by MTT assay. It counts as functional, cell-based. The conditions noted are these: PC-3, 48 h.
The next assay concerns MDA-MB-231. The assay can be described thus: Antiproliferative activity against human MDA-MB-231 cells after 48 hrs by MTT assay. It counts as functional, cell-based. The conditions noted are these: MDA-MB-231, 48 h.
Assay [4] can be described thus: Cytotoxicity against human IOSE-144 cells after 48 hrs by MTT assay. It counts as cell-based. The conditions noted are these: IOSE-144, 48 h.
Assay [5] can be described thus: Antiproliferative activity against human DU145 cells after 48 hrs by MTT assay. The format is functional, cell-based. The conditions noted are these: DU-145, 48 h.

As to `C[C@H](N)C(=O)O[C@H]1CC[C@]2(C)[C@H]3C[C@@H](O)[C@@H]4[C@@H]([C@](C)(O)CCCC(C)(C)O)CC[C@@]4(C)[C@]3(C)CC[C@H]2C1(C)C`, the IC50 in assay [1] is 7.9 µM; in assay [2] it was 11 µM; in assay [3] it was 7.6 µM; in the assay on MDA-MB-231, 4.8 µM; in assay [4], more than 100 µM; in assay [5], 8 µM.
In the case of `CC[C@H](C)[C@H](NC(=O)OC(C)(C)C)C(=O)O[C@H]1CC[C@]2(C)[C@H]3C[C@@H](O)[C@@H]4[C@@H]([C@](C)(O)CCCC(C)(C)O)CC[C@@]4(C)[C@]3(C)CC[C@H]2C1(C)C`, the IC50 in assay [1] was 22 µM; in assay [2], 36 µM; in assay [3] it was 24 µM; with MDA-MB-231 it was 18 µM; in assay [4], more than 100 µM; in assay [5] it was 58 µM.
As to `CC(C)(O)CCC[C@@](C)(O)[C@H]1CC[C@]2(C)[C@@H]1[C@H](OC(=O)[C@H](Cc1ccc(O)cc1)NC(=O)OC(C)(C)C)C[C@@H]1[C@@]3(C)CC[C@H](O)C(C)(C)[C@@H]3CC[C@]12C`, the IC50 is 90 µM in assay [1]; 84 µM in assay [2]; 63 µM in assay [3]; 29 µM in the assay with MDA-MB-231; more than 100 µM in assay [4]; more than 100 µM in assay [5].
`C[C@@H](O)[C@H](NC(=O)OC(C)(C)C)C(=O)O[C@H]1CC[C@]2(C)[C@H]3C[C@@H](O)[C@@H]4[C@@H]([C@](C)(O)CCCC(C)(C)O)CC[C@@]4(C)[C@]3(C)CC[C@H]2C1(C)C`: the IC50 in assay [1] was 22 µM; in assay [2] it was 24 µM; in assay [3] it was 28 µM; in the assay on MDA-MB-231, 14 µM; in assay [4], more than 100 µM; in assay [5] it was 25 µM.
For the molecule `C[C@H](NC(=O)OC(C)(C)C)C(=O)O[C@H]1CC[C@]2(C)[C@H]3C[C@@H](OC(=O)[C@H](C)NC(=O)OC(C)(C)C)[C@@H]4[C@@H]([C@](C)(O)CCCC(C)(C)O)CC[C@@]4(C)[C@]3(C)CC[C@H]2C1(C)C`, the IC50 in assay [1] is 81 µM; in assay [2] it was 57 µM; in assay [3] it was more than 100 µM; with MDA-MB-231, 80 µM; in assay [4], more than 100 µM; in assay [5], more than 100 µM.
On to `CC(C)(O)CCC[C@@](C)(O)[C@H]1CC[C@]2(C)[C@@H]1[C@H](OC(=O)[C@H](CCC(=O)OCc1ccccc1)NC(=O)OC(C)(C)C)C[C@@H]1[C@@]3(C)CC[C@H](OC(=O)[C@H](CCC(=O)OCc4ccccc4)NC(=O)OC(C)(C)C)C(C)(C)[C@@H]3CC[C@]12C`, for which the IC50 in assay [1] is more than 100 µM; in assay [2] it was 61 µM; in assay [3], more than 100 µM; in the assay on MDA-MB-231, 89 µM; in assay [4], more than 100 µM; in assay [5] it was more than 100 µM.
On to `C[C@H](NC(=O)OC(C)(C)C)C(=O)O[C@H]1CC[C@]2(C)[C@H]3C[C@@H](O)[C@@H]4[C@@H]([C@](C)(O)CCCC(C)(C)O)CC[C@@]4(C)[C@]3(C)CC[C@H]2C1(C)C`, for which the IC50 in assay [1] is 18 µM; in assay [2], 24 µM; in assay [3], 22 µM; with MDA-MB-231 it was 17 µM; in assay [4], more than 100 µM; in assay [5], 23 µM.
For `CC(C)(O)CCC[C@@](C)(O)[C@H]1CC[C@]2(C)[C@@H]1[C@H](O)C[C@@H]1[C@@]3(C)CC[C@H](OC(=O)[C@H](Cc4ccc(O)cc4)NC(=O)OC(C)(C)C)C(C)(C)[C@@H]3CC[C@]12C`, the IC50 in assay [1] is 37 µM; in assay [2], 33 µM; in assay [3], 25 µM; in the assay with MDA-MB-231 it was 19 µM; in assay [4] it was more than 100 µM; in assay [5], 34 µM.
As to `CC[C@H](C)[C@H](NC(=O)OC(C)(C)C)C(=O)O[C@@H]1C[C@@H]2[C@@]3(C)CC[C@H](O)C(C)(C)[C@@H]3CC[C@@]2(C)[C@]2(C)CC[C@H]([C@](C)(O)CCCC(C)(C)O)[C@@H]12`, the IC50 was more than 100 µM in assay [1]; 81 µM in assay [2]; more than 100 µM in assay [3]; more than 100 µM in the assay on MDA-MB-231; more than 100 µM in assay [4]; more than 100 µM in assay [5].
For `CC(C)(O)CCC[C@@](C)(O)[C@H]1CC[C@]2(C)[C@@H]1[C@H](O)C[C@@H]1[C@@]3(C)CC[C@H](OC(=O)[C@H](CCC(=O)OCc4ccccc4)NC(=O)OC(C)(C)C)C(C)(C)[C@@H]3CC[C@]12C`, the IC50 in assay [1] was 23 µM; in assay [2] it was 28 µM; in assay [3] it was 29 µM; with MDA-MB-231, 19 µM; in assay [4], more than 100 µM; in assay [5] it was 54 µM.
As to `CC(C)(O)CCC[C@@](C)(O)[C@H]1CC[C@]2(C)[C@@H]1[C@H](O)C[C@@H]1[C@@]3(C)CC[C@H](OC(=O)[C@@H](N)Cc4cnc[nH]4)C(C)(C)[C@@H]3CC[C@]12C`, the IC50 in assay [1] is 12 µM; in assay [2], 11 µM; in assay [3] it was 10 µM; with MDA-MB-231, 5.3 µM; in assay [4] it was more than 100 µM; in assay [5], 9.6 µM.
Regarding `CC(C)(O)CCC[C@@](C)(O)[C@H]1CC[C@]2(C)[C@@H]1[C@H](O)C[C@@H]1[C@@]3(C)CC[C@H](OC(=O)[C@H](CO)NC(=O)OC(C)(C)C)C(C)(C)[C@@H]3CC[C@]12C`, the IC50 in assay [1] was 21 µM; in assay [2], 24 µM; in assay [3], 25 µM; with MDA-MB-231 it was 18 µM; in assay [4], more than 100 µM; in assay [5], 25 µM.
Regarding `C[C@@H](O)[C@H](N)C(=O)O[C@H]1CC[C@]2(C)[C@H]3C[C@@H](O)[C@@H]4[C@@H]([C@](C)(O)CCCC(C)(C)O)CC[C@@]4(C)[C@]3(C)CC[C@H]2C1(C)C`, the IC50 was 11 µM in assay [1]; 12 µM in assay [2]; 8.9 µM in assay [3]; 5.4 µM in the assay on MDA-MB-231; more than 100 µM in assay [4]; 8.7 µM in assay [5].
In the case of `CC(C)(O)CCC[C@@](C)(O)[C@H]1CC[C@]2(C)[C@@H]1[C@H](O)C[C@@H]1[C@@]3(C)CC[C@H](OC(=O)[C@H](CCCNC(=N)N)NC(=O)OC(C)(C)C)C(C)(C)[C@@H]3CC[C@]12C`, the IC50 was 12 µM in assay [1]; 13 µM in assay [2]; 12 µM in assay [3]; 8 µM in the assay on MDA-MB-231; more than 100 µM in assay [4]; 11 µM in assay [5].
As to `CC[C@H](C)[C@H](NC(=O)OC(C)(C)C)C(=O)O[C@H]1CC[C@]2(C)[C@H]3C[C@@H](OC(=O)[C@@H](NC(=O)OC(C)(C)C)[C@@H](C)CC)[C@@H]4[C@@H]([C@](C)(O)CCCC(C)(C)O)CC[C@@]4(C)[C@]3(C)CC[C@H]2C1(C)C`, the IC50 in assay [1] is more than 100 µM; in assay [2], 69 µM; in assay [3], more than 100 µM; in the assay on MDA-MB-231, more than 100 µM; in assay [4] it was more than 100 µM; in assay [5], more than 100 µM.

The IC50 is the concentration needed to halve the response being measured.
